Reference: US20250026748A1, “N-(5-SUBSTITUTED-[(1,3,4-THIADIAZOLYL) OR (THIAZOLYL)])(SUBSTITUTED)CARBOXAMIDE COMPOUNDS AND USE THEREOF FOR INHIBITING HUMAN POLYMERASE THETA” (Repare Therapeutics Inc., priority 2021, published 2025)

Legend:
[1] = molecular target: Polθ ATPase enzyme (1-894) (Homo sapiens (Human), UniProt O75417); assay: Polθ ATPase enzymatic assay (3 nM enzyme concentration), ADP-Glo; type: biochemical; conditions: read-out: IC50 (nM) [PolQ] 3 nM; average IC50; 3 nM PolQ ATPase enzyme (1-894)
Description: Polθ ATPase enzyme (1-894) at 3 nM is incubated with a 10-point concentration response of inhibitors for 15 min at rt in the following buffer: 50 mM Tris Cl pH 7.5, 10% glycerol, 5 mM DTT, 10 mM MgCl2, 0.1 mg/ml BSA. Following pre-incubation with inhibitors, DNA (Fork C) at 20 nM and ATP at 100 μM are added to start the reaction. Enzymatic reaction proceeds at rt for 60 min. ATP consumption is measured using the ADP-Glo assay from Promega. Luminescence is read on the Envision and IC50 are determined using the variable slope 4-parameters equation.
DNA (Fork C) is made by annealing 3 different oligos containing the following sequence of nucleotides:
Oligos are annealed by heating at 95° C. for 5 min in the following buffer (10 mM Tris-HCl pH7.5, 50 mM NaCl, 1 mM EDTA) and cooled to rt. […]

[2] = molecular target: PolQ ATPase enzyme (1-894) (Homo sapiens (Human), UniProt O75417); assay: Polθ ATPase enzymatic assay (0.5 nM enzyme concentration), ADP-Glo; type: biochemical; conditions: average IC50; 0.5 nM PolQ ATPase enzyme (1-894)
Method in brief: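 Enzyme (0.5 nM) pre-incubated 15 min at rt with 10-point inhibitor series in 50 mM Tris pH 7.5, 10% glycerol, 5 mM DTT, 10 mM MgCl2, 0.1 mg/ml BSA; reaction started with 20 nM fork DNA and 100 μM ATP, run 180 min at rt. ADP-Glo luminescence; IC50 from 4-parameter variable-slope fit.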

PolQ ATPase enzyme (1-894), sequence (O75417 1-894): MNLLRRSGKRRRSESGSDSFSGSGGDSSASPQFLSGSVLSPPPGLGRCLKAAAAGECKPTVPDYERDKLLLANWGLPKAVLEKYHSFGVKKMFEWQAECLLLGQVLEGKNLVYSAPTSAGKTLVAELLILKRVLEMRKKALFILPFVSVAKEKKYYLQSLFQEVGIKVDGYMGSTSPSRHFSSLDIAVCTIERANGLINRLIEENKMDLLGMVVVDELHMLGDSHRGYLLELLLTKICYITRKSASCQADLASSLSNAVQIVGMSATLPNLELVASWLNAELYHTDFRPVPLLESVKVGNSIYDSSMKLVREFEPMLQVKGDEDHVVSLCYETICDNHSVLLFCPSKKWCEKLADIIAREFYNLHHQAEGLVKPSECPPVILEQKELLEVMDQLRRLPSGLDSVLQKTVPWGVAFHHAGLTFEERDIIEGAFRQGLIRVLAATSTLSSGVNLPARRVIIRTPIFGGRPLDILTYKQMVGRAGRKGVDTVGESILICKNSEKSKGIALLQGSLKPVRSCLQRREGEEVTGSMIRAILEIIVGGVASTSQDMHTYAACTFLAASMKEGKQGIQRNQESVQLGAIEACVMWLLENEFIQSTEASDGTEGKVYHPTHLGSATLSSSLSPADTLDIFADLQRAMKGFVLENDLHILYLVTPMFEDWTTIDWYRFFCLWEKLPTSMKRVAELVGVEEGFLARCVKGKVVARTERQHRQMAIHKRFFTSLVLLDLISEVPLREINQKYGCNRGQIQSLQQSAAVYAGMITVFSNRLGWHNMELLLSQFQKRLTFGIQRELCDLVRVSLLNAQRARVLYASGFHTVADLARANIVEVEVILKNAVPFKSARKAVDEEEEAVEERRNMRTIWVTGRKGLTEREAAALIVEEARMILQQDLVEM
Polθ ATPase enzyme (1-894), sequence (O75417 1-894): as above

Compound | IC50 [1] | IC50 [2]
COc1ccc(F)cc1-c1cnccc1C(=O)Nc1nnc(C#Cc2ccc3nccn3n2)s1 [Compound 11] | 117 nM | –
COc1ccc(F)cc1-c1cn(C)c(=O)cc1C(=O)Nc1nnc(C#Cc2ccn(C)n2)s1 [Compound 19] | 27 nM | –
COc1ccc(F)cc1-c1cnccc1C(=O)Nc1nnc(C#Cc2cnc3cnccn23)s1 [Compound 14] | 139 nM | –
COc1ccc(F)cc1-c1cnccc1C(=O)Nc1nnc(C#Cc2cnn(CC#N)c2)s1 [Compound 8, N-(5-((1-(cyanomethyl)-1H-pyrazol-4-yl)ethynyl)-1,3,4-thiadiazol-2-yl)-3-(5-fluoro-2-methoxyphenyl)isonicotinamide] | 48 nM | –
COc1ccc(F)cc1-c1cnccc1C(=O)Nc1nnc(C#Cc2cnc(C#N)c(OC)c2)s1 [Compound 10] | 54 nM | –
COc1ccc(C#N)cc1-c1cn(C)c(=O)cc1C(=O)Nc1nnc(C2C[C@H]2c2ccc(C#N)cc2)s1 (some centres unmarked) [Compound 15] | 15 nM | –
COc1ccc(F)cc1-c1cnccc1C(=O)Nc1nnc([C@@H]2C[C@H]2c2nc3ccccc3n2C)s1 [Compound 4, 3-(5-fluoro-2-methoxyphenyl)-N-(5-((1R,2R)-2-(1-methyl-1H-benzo[d]imidazol-2-yl)cyclopropyl)-1,3,4-thiadiazol-2-yl)isonicotinamide] | 92 nM | –
COc1cnc(Cl)cc1-c1cn(C)c(=O)cc1C(=O)Nc1nnc(C#CC2CC23CC3)s1 (centres unmarked) [Compound 107] | – | 0.76 nM
COc1cnc(C(F)F)cc1-c1cc(Cl)ncc1C(=O)Nc1nc(C#N)c(C#CC2CC2)s1 [Compound 259] | – | 1.2 nM
C#C[C@H]1C[C@@H]1c1nnc(NC(=O)c2cnc(CC#N)cc2-c2cc(C(F)F)ncc2OC)s1 [Compound 190] | – | 5.8 nM
COc1cnc(C(F)F)cc1-c1cc(C2CC2)ncc1C(=O)Nc1nnc(C#CC2CC2)s1 [Compound 247] | – | 2.9 nM
O=C(Nc1nnc(C#CC2CC2)s1)c1cnc(-n2ccccc2=O)cc1-c1cc(C(F)F)ncc1Cl [Compound 403] | – | < 0.25 nM
COc1cnc(C(F)F)cc1-c1cc(-c2cc(C#N)n(C)n2)ncc1C(=O)Nc1nnc(C#CC2CC2)s1 [Compound 371] | – | 8.1 nM
COc1ccc(C(F)(F)F)cc1-c1cc(-c2ccn(C)n2)ncc1C(=O)Nc1nnc(C#CC2CC2)s1 [Compound 308] | – | 0.42 nM
O=C(Nc1ncc(C#CC2CC2)s1)c1cc(=O)n(Cc2nccs2)cc1-c1cc(C(F)F)ccc1Cl [Compound 208] | – | 14 nM
COc1cnc(C(F)F)cc1-c1cc(C#CC2(C(=O)N(C)C)CC2)ncc1C(=O)Nc1nnc(C#CC2CC2)s1 [Compound 211] | – | < 0.25 nM
COc1cnc(C2CC2)cc1-c1cnccc1C(=O)Nc1nnc(C#CC2CC2)s1 [Compound 79] | – | 1.21 nM
COc1cnc(C(F)F)cc1-c1cc(CC(=O)N2CCOCC2)ccc1C(=O)Nc1nnc(C#CC2CC2)s1 [Compound 228] | – | < 0.25 nM
COc1cnc(Cl)cc1-c1cn(C)c(=O)cc1C(=O)Nc1nnc(C#Cc2cc(C)[nH]n2)s1 [Compound 103] | – | 1.2 nM
COc1cnc(C(F)F)cc1-c1cc(N2CC3(CC(C(=O)N(C)C)C3)C2)ncc1C(=O)Nc1nnc(C#CC2CC2)s1 [Compound 129] | – | 1.6 nM
COc1cnc(C(F)F)cc1-c1nc(-c2nnc(C)o2)ccc1C(=O)Nc1nnc(C#CC2CC2)s1 [Compound 391] | – | > 100 nM
COc1cnc(C(F)F)cc1-c1cc(N2CC3(COC3)CC2=O)ncc1C(=O)Nc1nnc(C#CC2CC2)s1 [Compound 359] | – | 1.7 nM
COc1cnc(C(F)F)cc1-c1cc(N2CCC(C)(C)CC2=O)ncc1C(=O)Nc1nnc(C#CC2CC2)s1 [Compound 353] | – | 0.49 nM
COc1cnc(C(F)F)cc1-c1cc(N2CCOC[C@@H]2C)ncc1C(=O)Nc1nnc(C#CC2CC2)s1 [Compound 377] | – | > 100 nM
COc1cnc(C(F)F)cc1-c1cn2ncnc2cc1C(=O)Nc1nnc(C#CC2CC23CC3)s1 (centres unmarked) [Compound 48] | – | 2.5 nM
COc1cnc(C(F)F)cc1-c1cc(-c2ccc(C)cn2)ncc1C(=O)Nc1nnc(C#CC2CC2)s1 [Compound 436] | – | < 0.25 nM
